According to patent US12257339B2, “Phytocomplex and extract of a meristematic cell line selected from a plant belonging to the genus Rosa” (AETHERA BIOTECH S.R.L., priority 2019, dated 2025):

Experiment: Antioxidant activity, DPPH method
Assay type: biochemical
Conditions: methanol extract/solution; absorbance at 517 nm
Protocol: The assay of antioxidant activity was performed using the DPPH method. The assay with the DPPH (2,2-diphenyl-1-picryl-hydrazyl) radical has the aim of evaluating, in vitro, the antioxidant activity of the line of Rosa […] vis-à-vis a stained stable radical and measuring its disappearance by spectrophotometry. […] The Rc-F2P homogenate of meristematic cells of Rosa […] extracted in methanol and placed in an ultrasonic bath for 20 minutes. Various aliquots of solution were taken and they were added to a same amount of DPPH solution and brought to volume with methanol, so as to evaluate the antioxidant capacity of the sample at different concentrations. The results are expressed as EC50, i.e. as the concentration of the Rc-F2P phytocomplex capable of decreasing the initial absorbance of the radical at 517 nm by 50%. The result is then compared with that obtained from a methanol solution of ascorbic acid, used as a reference. The lower the EC50, the greater the antioxidant capacity.

In the case of `O=C1O[C@H]([C@@H](O)CO)C(O)=C1O` [Ascorbic acid, ascorbic acid], the “EC50 (concentration decreasing the initial absorbance of the DPPH radical at 517 nm by 50%)” value is reported as 3.19 ± 0.16 µg/mL.
